Assay results taken from BindingDB's records for doi:10.1021/bi051886s (Johnson & Johnson Pharmaceutical, 2006).

Assays:
Test in all cases: Protease Inhibition Assay
[1] = biological target: T1, Dimer of Gag-Pol polyprotein [490-588,L523I,E525D,M526I,I544V,L553H,H559K,L579M] (Human immunodeficiency virus 1, UniProt P05959, E525D/H559K/I544V/L523I/L553H/L579M/M526I)
T1 construct: 490-588

[2] = biological target: T2, Dimer of Gag-Pol polyprotein [482-580,I502K,I528M,T553A,V564F] (Human immunodeficiency virus 1, UniProt P24740, I502K/I528M/T553A/V564F)
T2 construct: 482-580

[3] = biological target: T3, Dimer of Gag-Pol polyprotein [501-599,V583F] (Human immunodeficiency virus 1, UniProt P03367, V583F); settings: pH 4.7; 37 °C
T3 construct: 501-599

[4] = biological target: T4, Dimer of Gag-Pol polyprotein [501-599] (Human immunodeficiency virus 1, UniProt P03367); settings: pH 4.7; 37 °C
T4 construct: 501-599

[5] = biological target: T5, Dimer of Gag-Pol polyprotein [482-580,I502K,I528M,T553A] (Human immunodeficiency virus 1, UniProt P24740, I502K/I528M/T553A); settings: pH 4.7; 37 °C
T5 construct: 482-580

[6] = biological target: T6, Dimer of Gag-Pol polyprotein [490-588,L523I,E525D,M526I,I544V,L553H,H559K,V572F,L579M] (Human immunodeficiency virus 1, UniProt P05959, E525D/H559K/I544V/L523I/L553H/L579M/M526I/V572F)
T6 construct: 490-588

Compound | Ki [1] [nM] | Ki [2] [nM] | Ki [3] [nM] | Ki [4] [nM] | Ki [5] [nM] | Ki [6] [nM]
Cc1cccc(C)c1OCC(=O)N[C@@H](Cc1ccccc1)[C@@H](O)C[C@H](Cc1ccccc1)NC(=O)[C@H](C(C)C)N1CCCNC1=O [(2S)-N-[(2S,4S,5S)-5-[2-(2,6-dimethylphenoxy)acetamido]-4-hydroxy-1,6-diphenylhexan-2-yl]-3-methyl-2-(2-oxo-1,3-diazinan-1-yl)butanamide] | 0.5 | 0.48 | 0.2 | 0.05 | 0.019 | 9
COC(=O)N[C@H](C(=O)N[C@@H](Cc1ccccc1)[C@@H](O)CN(Cc1ccc(-c2ccccn2)cc1)NC(=O)[C@@H](NC(=O)OC)C(C)(C)C)C(C)(C)C [CGP 73547] | 1.1 | 0.57 | 0.56 | – | 0.24 | 0.7
CC(C)(C)NC(=O)[C@@H]1CN(Cc2cccnc2)CCN1C[C@@H](O)C[C@@H](Cc1ccccc1)C(=O)N[C@H]1c2ccccc2C[C@H]1O [Crixivan] | 42 | 108 | – | – | 6.9 | 1620
CC(C)(C)NC(=O)[C@@H]1C[C@@H]2CCCC[C@@H]2CN1C[C@@H](O)[C@H](Cc1ccccc1)NC(=O)[C@H](CC(N)=O)NC(=O)c1ccc2ccccc2n1 [SQV] | 48 | 0.43 | – | – | 1.8 | 24
CC(C)CN(C[C@@H](O)[C@H](Cc1ccccc1)NC(=O)O[C@H]1CCOC1)S(=O)(=O)c1ccc(N)cc1 [VX-478] | 1.4 | 1.2 | – | – | 0.4 | 23
Cc1c(O)cccc1C(=O)N[C@@H](CSc1ccccc1)[C@H](O)CN1C[C@H]2CCCC[C@H]2C[C@H]1C(=O)NC(C)(C)C [Viracept] | 17 | – | – | – | – | 146
